Several values for one entry are separate records, joined by “and”; a condition that tells them apart may be missing. Equal values may be shown once. Inconclusive results and toxic doses are left out.
Test system: BDF1 mice, P388 leukemia ip, median survival T/C
Test: NCI In Vivo Anticancer Drug Screen. Data for tumor model P388 Leukemia (intraperitoneal) in B6D2F1 (BDF1) mice
Conditions: endpoint: median survival time, higher = longer survival
Outline: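 Mice carrying the transplantable tumour receive compound or vehicle. Survival is followed in each arm, and the treated measure is divided by the vehicle measure.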

[1] = dose: 100.0 mg/kg/injection, schedule: Q04DX003 (ip), vehicle: saline with Tween-80
[2] = dose: 200.0 mg/kg/injection, schedule: Q04DX003 (ip), vehicle: saline with Tween-80
[3] = dose: 400.0 mg/kg/injection, schedule: Q04DX003 (ip), vehicle: saline with Tween-80
[4] = dose: 100.0 mg/kg/injection, schedule: Q01DX009 (ip), vehicle: saline with Tween-80
[5] = dose: 200.0 mg/kg/injection, schedule: Q01DX009 (ip), vehicle: saline with Tween-80

## ClCc1c2ccccc2c(CCl)c2ccccc12
dose: 0.21 mg/kg/injection, schedule: Q01DX009 (ip), vehicle: saline
  T/C: 154 % of control
dose: 0.33 mg/kg/injection, schedule: Q01DX009 (ip), vehicle: saline
  T/C: 159 % of control and 190 % of control
dose: 0.49 mg/kg/injection, schedule: Q01DX009 (ip), vehicle: saline
  T/C: 154 % of control
dose: 1.3 mg/kg/injection, schedule: Q04DX003 (ip), vehicle: Klucel (hydroxypropylcellulose) (HPC)
  T/C: 150 % of control
dose: 1.35 mg/kg/injection, schedule: Q01DX009 (ip), vehicle: saline
  T/C: 180 % of control
dose: 1.5 mg/kg/injection, schedule: Q01DX009 (ip), vehicle: Klucel (hydroxypropylcellulose) (HPC)
  T/C: 153 % of control
dose: 2.0 mg/kg/injection, schedule: Q04DX003 (ip), vehicle: Klucel (hydroxypropylcellulose) (HPC)
  T/C: 170 % of control
dose: 3.0 mg/kg/injection, schedule: Q01DX009 (ip), vehicle: Klucel (hydroxypropylcellulose) (HPC)
  T/C: 157 % of control and 200 % of control
dose: 3.0 mg/kg/injection, schedule: Q04DX003 (ip), vehicle: Klucel (hydroxypropylcellulose) (HPC)
  T/C: 154 % of control and 166 % of control
dose: 5.0 mg/kg/injection, schedule: Q04DX003 (ip), vehicle: Klucel (hydroxypropylcellulose) (HPC)
  T/C: 168 % of control
dose: 6.0 mg/kg/injection, schedule: Q01DX009 (ip), vehicle: Klucel (hydroxypropylcellulose) (HPC)
  T/C: 105 % of control
dose: 8.0 mg/kg/injection, schedule: Q04DX003 (ip), vehicle: Klucel (hydroxypropylcellulose) (HPC)
  T/C: 154 % of control and 172 % of control
dose: 12.0 mg/kg/injection, schedule: Q04DX003 (ip), vehicle: Klucel (hydroxypropylcellulose) (HPC)
  T/C: 177 % of control

## CCOC(=O)C1(C)CCCCC1=O (centres undefined)
[1]
  T/C: 95 % of control
[2]
  T/C: 104 % of control
[3]
  T/C: 100 % of control

## c1ccc(C2SCCSCCS2)cc1
dose: 100.0 mg/kg/injection, schedule: Q04DX003 (ip), vehicle: Klucel (hydroxypropylcellulose) (HPC)
  T/C: 90 % of control
dose: 200.0 mg/kg/injection, schedule: Q04DX003 (ip), vehicle: Klucel (hydroxypropylcellulose) (HPC)
  T/C: 100 % of control
dose: 400.0 mg/kg/injection, schedule: Q04DX003 (ip), vehicle: Klucel (hydroxypropylcellulose) (HPC)
  T/C: 100 % of control

## [O-]c1c(Cl)c(Cl)c(O[P+](c2ccccc2)(c2ccccc2)c2ccccc2)c(Cl)c1Cl
dose: 6.25 mg/kg/injection, schedule: Q01DX009 (ip), vehicle: saline
  T/C: 116 % of control
dose: 12.5 mg/kg/injection, schedule: Q01DX009 (ip), vehicle: saline
  T/C: 122 % of control

## CN(N=O)C(=O)NNC(=O)N(C)N=O
dose: 40.0 mg/kg/injection, schedule: Q04DX003 (ip), vehicle: saline with Tween-80
  T/C: 105 % of control
dose: 60.0 mg/kg/injection, schedule: Q04DX003 (ip), vehicle: saline with Tween-80
  T/C: 115 % of control
dose: 90.0 mg/kg/injection, schedule: Q04DX003 (ip), vehicle: saline with Tween-80
  T/C: 105 % of control

## NCCCC(NC(=O)CCCCCCCCN=C(N)N)C(O)CCCCCCCCN=C(N)N (centres undefined)
dose: 3.75 mg/kg/injection, schedule: Q01DX010 (ip), vehicle: saline
  T/C: 91 % of control

## Cc1c(-c2ccc(C(=N)N)cc2)oc(-c2ccc(C(=N)N)cc2)c1C
dose: 3.13 mg/kg/injection, schedule: Q01DX009 (ip), vehicle: saline with Tween-80
  T/C: 109 % of control

## CS(=O)c1ncc2cnccn12 (centres undefined)
dose: 25.0 mg/kg/injection, schedule: Q04DX003 (ip), vehicle: water
  T/C: 108 % of control
dose: 50.0 mg/kg/injection, schedule: Q04DX003 (ip), vehicle: water
  T/C: 100 % of control
dose: 100.0 mg/kg/injection, schedule: Q01DX009 (ip), vehicle: water
  T/C: 104 % of control
dose: 100.0 mg/kg/injection, schedule: Q04DX003 (ip), vehicle: water
  T/C: 108 % of control
dose: 200.0 mg/kg/injection, schedule: Q01DX009 (ip), vehicle: water
  T/C: 106 % of control

## C=CCOP(=O)(OCC=C)OCC=C
dose: 25.0 mg/kg/injection, schedule: Q01DX009 (ip), vehicle: Klucel (hydroxypropylcellulose) (HPC)
  T/C: 100 % of control
dose: 50.0 mg/kg/injection, schedule: Q01DX009 (ip), vehicle: Klucel (hydroxypropylcellulose) (HPC)
  T/C: 104 % of control
dose: 100.0 mg/kg/injection, schedule: Q01DX009 (ip), vehicle: Klucel (hydroxypropylcellulose) (HPC)
  T/C: 104 % of control

## COc1cc2c(cc1OC)C(CNC(=O)/C=C/c1cc(OC)c(OC)c(OC)c1)C2 (centres undefined)
dose: 50.0 mg/kg/injection, schedule: Q01DX009 (ip), vehicle: saline with Tween-80
  T/C: 98 % of control
[4]
  T/C: 107 % of control
[5]
  T/C: 88 % of control

## Cc1nc(N)c(=O)[nH]c1C
[4]
  T/C: 95 % of control
[1]
  T/C: 108 % of control
[5]
  T/C: 90 % of control
[2]
  T/C: 95 % of control
dose: 400.0 mg/kg/injection, schedule: Q01DX009 (ip), vehicle: saline with Tween-80
  T/C: 90 % of control
[3]
  T/C: 91 % of control

## CCOC(=O)NC1CC2(C=CN1C(=O)OCC)CCCCC2 (centres undefined)
dose: 37.5 mg/kg/injection, schedule: Q04DX003 (ip), vehicle: Klucel (hydroxypropylcellulose) (HPC)
  T/C: 113 % of control
dose: 75.0 mg/kg/injection, schedule: Q04DX003 (ip), vehicle: Klucel (hydroxypropylcellulose) (HPC)
  T/C: 118 % of control
dose: 150.0 mg/kg/injection, schedule: Q04DX003 (ip), vehicle: Klucel (hydroxypropylcellulose) (HPC)
  T/C: 112 % of control

## Cc1ccnc(NC(=O)Nc2ccccc2F)c1
dose: 100.0 mg/kg/injection, schedule: Q01DX001 (ip), vehicle: Klucel (hydroxypropylcellulose) (HPC)
  T/C: 90 % of control
dose: 200.0 mg/kg/injection, schedule: Q01DX001 (ip), vehicle: Klucel (hydroxypropylcellulose) (HPC)
  T/C: 95 % of control
dose: 400.0 mg/kg/injection, schedule: Q01DX001 (ip), vehicle: Klucel (hydroxypropylcellulose) (HPC)
  T/C: 105 % of control

From PubChem BioAssay AID328 (DTP/NCI, 2004)
